According to PubChem BioAssay AID1648 (Sanford-Burnham Center for Chemical Genomics, 2009):
Calls of active or inactive are those of the source. The rule behind the calls is not given here.

Biological target: Serine/threonine-protein kinase mTOR (Homo sapiens) (UniProt P42345)
Assay: binders of mTOR FRB domain, biophysical, NMR (AID 1648)
Details: NMR binding to FRB domain, chemical shift

Chain of Serine/threonine-protein kinase mTOR (Homo sapiens) (P42345 2015-2114): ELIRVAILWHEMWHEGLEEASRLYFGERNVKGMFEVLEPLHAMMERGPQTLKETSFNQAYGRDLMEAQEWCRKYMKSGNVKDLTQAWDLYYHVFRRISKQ

## c1ccc(SCc2nc(-c3ccccn3)no2)cc1
  Kd: > 4 mM (inactive)

## Cc1nn(C)c(N2CCOCC2)c1N
  Kd: > 4 mM (inactive)

## O=C(NCc1cccc(Cl)c1)c1cnccn1
  Kd: > 4 mM (inactive)

## COC(=O)CCC(C)C1CCC2C3CCC4C[C@H](O)CC[C@]4(C)C3C[C@H](O)[C@]12C (stereo partly drawn)
  Kd: > 4 mM (inactive)

## O=C1CCCN1c1ccc(S(=O)O)cc1
  Kd: > 4 mM (inactive)

## O=C(O)c1ccccc1C(=O)Nc1ccccc1
  Kd: > 4 mM (inactive)

## CC(=O)N(C)Cc1nc2ccccc2n1C
  Kd: > 4 mM (inactive)

## CCCCn1c(=O)cc(O)c2ccccc21
  Kd: > 4 mM (inactive)

## O=C1CCCC2C3CC(CN12)[C@@H]1CCCCN1C3 (stereo partly drawn)
  Kd: > 4 mM (inactive)

## Oc1ccc2nonc2c1
  Kd: > 4 mM (inactive)

## Cc1cccc(N2C(=O)CCC2=O)n1
  Kd: > 4 mM (inactive)

## CCNC(=S)NS(=O)(=O)c1ccccc1
  Kd: > 4 mM (inactive)

## NC(=O)NCCCC(N)C(=O)O (stereo not drawn)
  Kd: > 4 mM (inactive)

## Cn1c(=O)c2c([nH]c(=O)n2C)n(C)c1=O
  Kd: > 4 mM (inactive)

## COc1ccc(N2C(=O)CCC2=O)c(OC)c1
  Kd: > 4 mM (inactive)

## Cc1cc(C)n2nc(NCc3ccccc3)nc2n1
  Kd: > 4 mM (inactive)

## Nc1ccc(NC(=O)c2ccco2)c(Cl)c1
  Kd: > 4 mM (inactive)

## O=C(c1ccccc1)N1CCNCC1
  Kd: > 4 mM (inactive)

## Nc1cccnc1Oc1ccc(F)cc1F
  Kd: > 4 mM (inactive)

## COc1c(C(C)C)oc2cc3oc(=O)ccc3cc12
  Kd: > 4 mM (inactive)

## NC(=O)c1ccsc1NC(=O)C1=COCCO1
  Kd: > 4 mM (inactive)

## O=C(OCc1c(F)cccc1Cl)c1cnccn1
  Kd: > 4 mM (inactive)

## CN(C(=O)NC1CCS(=O)(=O)C1)C1CCCCC1 (stereo not drawn)
  Kd: > 4 mM (inactive)

## CSc1nnc2[nH]c(=O)cc(N)n12
  Kd: > 4 mM (inactive)

## COC(=O)C[C@H]1C(C)(C)C(=O)[C@@H]2CC3=C(CC[C@]4(C)C3=CC(=O)O[C@H]4c3ccoc3)C1(C)C2=O
  Kd: > 4 mM (inactive)

## Fc1ccc(NC2=NCCS2)cc1Cl
  Kd: > 4 mM (inactive)

## Oc1cc(O)cc(/C=C/c2ccccc2)c1
  Kd: > 4 mM (inactive)

## CC(=O)O[C@H]1C[C@@H](OC(C)=O)C(C)(C)C2C[C@@H](O)[C@]3(C)C(CC[C@@]4(C)[C@H](c5ccoc5)OC(=O)[C@H]5O[C@]543)[C@]21C (stereo partly drawn)
  Kd: > 4 mM (inactive)

## O=C(O)C12CC3CC(CC(O)(C3)C1)C2
  Kd: > 4 mM (inactive)

## COc1ccc(-c2cc(=O)c3c(O)cc(O[C@H]4O[C@H](CO[C@@H]5O[C@@H](C)[C@H](O)[C@@H](O)[C@H]5O)[C@@H](O)[C@H](O)[C@H]4O)cc3o2)cc1
  Kd: > 4 mM (inactive)

## CCNS(=O)(=O)c1cc(Br)ccc1OC
  Kd: > 4 mM (inactive)

## O=C(O)c1cn(-c2ccccc2)nc1-c1cccnc1
  Kd: > 4 mM (inactive)

## O=C(O)C1CN2CCC1CC2 (stereo not drawn)
  Kd: > 4 mM (inactive)

## Cc1ccc2c(c1)=C(c1sc(N)nc1O)C(=O)N=2
  Kd: > 4 mM (inactive)

## Cc1cccn2cc(CNc3ccccc3)nc12
  Kd: > 4 mM (inactive)

## O=C(CSc1ncnc2ccccc12)NCCCO
  Kd: > 4 mM (inactive)

## Cc1csc(SCC(=O)N2CCCC2)n1
  Kd: > 4 mM (inactive)

## OC1CCN(C(=S)NC2CC2)CC1
  Kd: > 4 mM (inactive)

## Cn1ccc(NC(=S)Nc2cccc([N+](=O)[O-])c2)n1
  Kd: > 4 mM (inactive)

## Nc1ccc(-c2cnco2)cc1
  Kd: > 4 mM (inactive)

## CCN(CC)c1nc2n(c(=O)n1)CCO2
  Kd: > 4 mM (inactive)

## CC(=O)O[C@H]1C[C@@H](OC(C)=O)C(C)(C)C2CC(=O)[C@]3(C)C(CC[C@@]4(C)[C@H](C(=O)O)OC(=O)C5OC543)[C@]21C (stereo partly drawn)
  Kd: > 4 mM (inactive)

## CC(C)CCCC1(C)C=Cc2c(O)c3c(c(CCC(C)C)c2O1)OC12C(CC4CC1C(C)(C)OC2(CCC(C)C(=O)O)C4O)C3=O (stereo not drawn)
  Kd: > 4 mM (inactive)
